Source: patent US5932577A, “Substituted oxobutyric acids as matrix metalloprotease inhibitors” (Bayer Corporation, priority 1997, dated 1999)

What was measured:
[1] = molecular target: T1, Recombinant Human CHO Stromelysin (MMP-3) (Homo sapiens, UniProt P08254); experiment: P218 quenched fluorescence assay (Microfluorometric Profiling Assay), MMP-3; format: biochemical; settings: for IC50: 6 μM P218, pH 6.5, 25 min at 37° C., read-out: MMP-3 Fluorogenic IC50; for inhibition at 5 µM: read-out: MMP-3 Fluorogenic, I = % inhibition
T1 construct: made in house; host or cells: CHO (Chinese hamster ovary) cells
T1 sequence (P08254 100-477): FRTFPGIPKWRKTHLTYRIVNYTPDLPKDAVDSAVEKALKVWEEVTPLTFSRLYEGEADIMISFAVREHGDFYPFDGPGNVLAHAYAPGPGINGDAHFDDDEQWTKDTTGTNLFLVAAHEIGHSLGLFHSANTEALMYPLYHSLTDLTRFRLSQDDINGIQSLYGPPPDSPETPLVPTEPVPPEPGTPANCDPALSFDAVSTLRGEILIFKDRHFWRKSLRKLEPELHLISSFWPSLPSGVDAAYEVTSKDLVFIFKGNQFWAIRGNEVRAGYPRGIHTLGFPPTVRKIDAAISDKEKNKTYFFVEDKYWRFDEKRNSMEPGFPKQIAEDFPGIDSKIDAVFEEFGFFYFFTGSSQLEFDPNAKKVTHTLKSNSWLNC
Description: (§1) P218 Quenched Fluorescence Assay for MMP Inhibition:
(§2) The P218 quenched fluorescence assay (Microfluorometric Profiling Assay) is a modification of that originally described by Knight, et al., FEBS Lett. 296 263, 1992 for a related substance and a variety of matrix metalloproteinases (MMPs) in cuvettes. The assay was run with each invention compound and the three MMPs, MMP-3, MMP-9 and MMP-2, analyzed in parallel, adapted as follows for a 96-well microtiter plate and a Hamilton AT® workstation.
(§3) P218 Fluorogenic Substrate:
(§4) P218 is a synthetic substrate containing a 4-acetyl-7-methoxycoumarin (MCA) group in the N-terminal position and a 3-[2,4-dinitrophenyl]-L-2,3-diaminopropionyl (DPA) group internally. This is a modification of a peptide reported by Knight (1992) that was used as a substrate for matrix metalloproteinases. Once the P218 peptide is cleaved (putative clip site at the Ala-Leu bond), the fluorescence of the MCA group can be detected on a fluorometer with excitation at 328 nm and emission at 393 nm. P218 is currently being produced BACHEM exclusively for Bayer. P218 has the structure:
(§5) H-MCA-Pro-Lys-Pro-Leu-Ala-Leu-DPA-Ala-Arg-NH2 (MW 1332.2)
Recombinant Human CHO Stromelysin (MMP-3)
Recombinant Human CHO Pro-MMP-3: Human CHO pro-stromelysin-257 (pro-MMP-3) was expressed and purified as described by Housley, et al., J. Biol. Chem. 268, 4481 (1993).
Activation of Pro-MMP-3: Pro-MMP-3 at 1.72 μM (100 μg/mL) in 5 mM Tris at pH 7.5, 5 mM CaCl2, 25 mM NaCl, and 0.005% Brij-35 MMP-3) activation buffer) was activated by incubation with TPCK (N-tosyl-(L)-phenylalanine chloromethyl ketone) trypsin (1: 100 w/w to pro-MMP-3) at 25° C. for 30 min. The reaction was stopped by addition of soybean trypsin inhibitor (SBTI; 5:1 w/w to trypsin concentration). This activation protocol results in the formation of 45 kDa active MMP-3, which still contains the C-terminal portion of the enzyme.
(§6) Hamiltion Microlab AT Plus: The MMP-Profiling Assay is performed robotically on a Hamilton MicroLab AT Plus®. The Hamilton is programmed to: (1) serially dilute up to 11 potential inhibitors automatically from a 2.5 mM stock in 100% DMSO; (2) distribute substrate followed by inhibitor into a 96 well Cytofluor plate; and (3) add a single enzyme to the plate with mixing to start the reaction. Subsequent plates for each additional enzyme are prepared automatically by beginning the program at the substrate addition point, remixing the diluted inhibitors and beginning the reaction by addition of enzyme. In this way, all MMP assays were done using the same inhibitor dilutions.
(§7) Millipore Cytofluor II. Following incubation, the plate was read on a Cytofluor II fluorometric plate reader with excitation at 340 nm and emission at 395 nm with the gain set at 80.
(§8) Microfluorometric Reaction Buffer (MRB): Dilution of test compounds, enzymes, and P218 substrate for the microfluorometric assay were made in microfluorometric reaction buffer consisting of 50 mM 2-(N-morpholino)ethanesulfonic acid (MES) at pH 6.5 with 10 mM CaCl2, 150 mM NaCl, 0.005% Brij-35 and 1% DMSO.
(§9) MMP Microfluorometric Profiling Assay. The assay is done with a final substrate concentration of 6 μM P218 and approximately 0.5 to 0.8 nM MMP with variable drug concentrations. The Hamilton is programmed to serially dilute up to 11 compounds from a 2.5 mM stock (100% DMSO) to 10× the final compounds concentrations in the assay. Initially, the instrument delivers various amounts of microfluoromentric reaction buffer (MRB) to a 96 tube rack of 1 ml Marsh dilution tubes. The instrument then picks up 20 μl of inhibitor (2.5 mM) from the sample rack and mixes it with a buffer in row A of the Marsh rack, resulting in a 50 μM drug concentration. The inhibitors are then serially diluted to 10, 5, 1, 0.2, 0.05 and 0.01 μM. […]

[2] = molecular target: T2, Human Recombinant Gelatinase B (MMP-9) (Homo sapiens, UniProt P14780); experiment: P218 quenched fluorescence assay (Microfluorometric Profiling Assay), MMP-9; format: biochemical; settings: 6 μM P218, pH 6.5, 25 min at 37° C.; read-out: MMP-9 Fluorogenic IC50
T2 construct: made in house
T2 sequence (P14780 107-707 limits assumed): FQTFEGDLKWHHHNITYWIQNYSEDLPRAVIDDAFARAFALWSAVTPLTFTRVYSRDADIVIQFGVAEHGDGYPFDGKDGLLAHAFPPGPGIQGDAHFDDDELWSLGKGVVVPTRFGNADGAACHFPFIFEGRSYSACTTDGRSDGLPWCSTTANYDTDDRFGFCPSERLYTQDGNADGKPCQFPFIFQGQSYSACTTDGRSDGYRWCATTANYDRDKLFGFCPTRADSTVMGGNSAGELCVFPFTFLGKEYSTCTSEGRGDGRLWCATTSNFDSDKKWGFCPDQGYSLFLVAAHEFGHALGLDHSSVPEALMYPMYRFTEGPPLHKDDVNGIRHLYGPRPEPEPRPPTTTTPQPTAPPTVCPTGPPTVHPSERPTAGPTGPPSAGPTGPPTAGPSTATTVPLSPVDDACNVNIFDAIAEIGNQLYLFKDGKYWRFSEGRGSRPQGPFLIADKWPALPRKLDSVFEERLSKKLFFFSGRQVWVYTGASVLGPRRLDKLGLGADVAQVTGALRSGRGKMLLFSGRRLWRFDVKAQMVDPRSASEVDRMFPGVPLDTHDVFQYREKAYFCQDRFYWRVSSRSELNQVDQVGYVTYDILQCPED
Description: as §1, §2, §3, §4, §5
Preparation of Human Recombinant Pro-Gelatinase B (MMP-9):
Recombinant Human Pro-MMP-9: Human pro-gelatinase B (pro-MMP-9) derived from U937 cDNA as described by Wilhelm, et al. J. Biol. Chem. 264, 17213 (1989) was expressed as the full-length form using a baculovirus protein expression system. The pro-enzyme was purified using methods previously described by Hibbs, et al. J. Biol. Chem. 260, 2493 (1984).
Activation of Pro-MMP-9: […] 20 μg/mL in 50 mM Tris at pH 7.4, 10 mM CaCl2, 150 mM NaCl, and 0.005% Brij-35 (MMP-9 activation buffer) was activated by incubation with 0.5 mM p-aminophenylmercuric acetate (APMA) for 3.5 h at 37° C. The enzyme was dialyzed against the same buffer to revmove the APMA.
as §6, §7, §8, §9

[3] = molecular target: T3, Human Recombinant Gelatinase A (MMP-2) (Homo sapiens, UniProt P08253); experiment: P218 quenched fluorescence assay (Microfluorometric Profiling Assay), MMP-2; format: biochemical; settings: for IC50: 6 μM P218, pH 6.5, 25 min at 37° C., read-out: MMP-2 Fluorogenic IC50; for inhibition at 5 µM: read-out: MMP-2 Fluorogenic, I = % inhibition
T3 sequence (P08253 110-660): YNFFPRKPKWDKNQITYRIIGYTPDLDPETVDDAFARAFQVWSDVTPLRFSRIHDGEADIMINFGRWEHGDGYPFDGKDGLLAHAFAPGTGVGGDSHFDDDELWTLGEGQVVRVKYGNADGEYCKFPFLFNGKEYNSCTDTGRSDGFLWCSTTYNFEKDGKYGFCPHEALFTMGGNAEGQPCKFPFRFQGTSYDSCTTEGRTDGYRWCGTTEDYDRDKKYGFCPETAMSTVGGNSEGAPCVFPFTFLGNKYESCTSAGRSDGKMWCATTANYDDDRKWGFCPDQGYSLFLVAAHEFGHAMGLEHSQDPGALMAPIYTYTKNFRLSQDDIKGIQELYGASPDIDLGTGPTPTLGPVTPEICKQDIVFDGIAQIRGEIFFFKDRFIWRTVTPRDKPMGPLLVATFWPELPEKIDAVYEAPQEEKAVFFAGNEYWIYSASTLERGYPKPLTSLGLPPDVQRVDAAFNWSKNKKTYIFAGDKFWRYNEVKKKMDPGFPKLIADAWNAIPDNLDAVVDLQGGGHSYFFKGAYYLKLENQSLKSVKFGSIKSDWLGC

human colon tumor = settings: given intraperitoneally, orthotopic model, nude mice; cited from earlier work
[4] = tested on: human ovarian carcinoma xenografts; settings: cited from earlier work

Compound | IC50 [1] | IC50 [2] | IC50 [3] | inhibition at 5 µM [1] | inhibition at 5 µM [3] | inhibition of human colon tumor growth and spread (human colon tumor) | survival of mice bearing human ovarian carcinoma xenografts [4]
CCCCCCCCCCC(=O)CC(CCN1C(=O)c2ccccc2C1=O)C(=O)O (stereo not drawn) [I, 1,3-dihydro-1,3-dioxo-α-(2-oxododecyl)-2H-isoindole-2-butanoic acid] | 4800 nM | 120 nM | 1300 nM |  |  |  | 
CCCCCCCCCC(=O)CC(CCN1C(=O)c2ccccc2C1=O)C(=O)O (stereo not drawn) [II, 1,3-dihydro-1,3-dioxo-α-(2-oxoundecyl)-2H-isoindole-2-butanoic acid] | 5000 nM | 240 nM | 1850 nM |  |  |  | 
CCCCCCCCCCCC(=O)CC(CCN1C(=O)c2ccccc2C1=O)C(=O)O (stereo not drawn) [III, 1,3-dihydro-1,3-dioxo-α-(2-oxotidecyl)-2H-isoindole-2-butanoic acid] | 2950 nM | 91 nM | 750 nM |  |  |  | 
COc1ccc(CC(=O)CC(CCc2ccccc2)C(=O)O)cc1 (stereo not drawn) [IX] |  |  |  | 9% | 18% |  | 
COc1ccc(CCCC(=O)CC(CCc2ccccc2)C(=O)O)cc1 (stereo not drawn) [VII] |  |  |  | 3% | 18% |  | 
CCCCCCCCCCCCCCC(=O)CC(CCN1C(=O)c2ccccc2C1=O)C(=O)O (stereo not drawn) [VI, 1,3-dihydro-1,3-dioxo-α-(2-oxohexadecyl)-2H-isoindole-2-butanoic acid] |  | 235 nM | 1020 nM | 45% |  |  | 
CNC(=O)[C@H](Cc1ccccc1)NC(=O)[C@H](CC(C)C)[C@H](CSc1cccs1)C(=O)NO [batimastat] |  |  |  |  |  | inhibits human colon tumor growth and spread | prolongs the survival
CCCCCCCCCCCCC(=O)CC(CCN1C(=O)c2ccccc2C1=O)C(=O)O (stereo not drawn) [IV, 1,3-dihydro-1,3-dioxo-α-(2-oxotetradecyl)-2H-isoindole-2-butanoicacid] | 2380 nM | 155 nM | 515 nM |  |  |  | 
CCCCCCCCCCCCCC(=O)CC(CCN1C(=O)c2ccccc2C1=O)C(=O)O (stereo not drawn) [V, 1,3-dihydro-1,3-dioxo-α-(2-oxopentadecyl)-2H-isoindole-2-butanoic acid] | 3380 nM | 150 nM | 1100 nM |  |  |  | 
